Active and inactive are the calls of the source. No cut-off for these calls is given here.
Experiments:
Peroxiredoxin-1 = target: T1, Peroxiredoxin-1 (Homo sapiens, UniProt Q06830); assay: Inhibition of recombinant PRDX1 (unknown origin) using H2O2 as substrate preincubated for 0.5 hrs followed by substrate addition by TRX-TrxR-NADPH coupling assay
T1 sequence (Q06830 whole entry): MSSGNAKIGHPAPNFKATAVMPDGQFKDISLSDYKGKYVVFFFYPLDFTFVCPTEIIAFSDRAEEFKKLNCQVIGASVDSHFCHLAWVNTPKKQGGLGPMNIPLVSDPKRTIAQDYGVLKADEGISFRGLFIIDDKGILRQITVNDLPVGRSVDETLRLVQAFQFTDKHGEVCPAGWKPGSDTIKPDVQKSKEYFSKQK

[1] = Antiproliferative activity against HEK293T cells; assay type: toxicity, cell-based, HEK-293T; settings: human
[2] = Antiproliferative activity against mouse […] cells; assay type: toxicity, cell-based
[3] = Selectivity ratio of IC50 for human LX2 cells to IC50 for human SW620 cells; assay type: functional
[4] = Selectivity ratio of IC50 for mouse […] cells to IC50 for human SW620 cells; assay type: functional
[5] = Selectivity ratio of IC50 for HEK293T cells to IC50 for human HCT-116 cells; assay type: functional
[6] = Selectivity ratio of IC50 for human LX2 cells to IC50 for human HCT-116 cells; assay type: functional
[7] = target: T2, Peroxiredoxin-5, mitochondrial (Homo sapiens, UniProt P30044); assay: Inhibition of recombinant PRDX5 (unknown origin) using H2O2 as substrate preincubated for 0.5 hrs followed by substrate addition by TRX-TrxR-NADPH coupling assay
T2 sequence (P30044 whole entry): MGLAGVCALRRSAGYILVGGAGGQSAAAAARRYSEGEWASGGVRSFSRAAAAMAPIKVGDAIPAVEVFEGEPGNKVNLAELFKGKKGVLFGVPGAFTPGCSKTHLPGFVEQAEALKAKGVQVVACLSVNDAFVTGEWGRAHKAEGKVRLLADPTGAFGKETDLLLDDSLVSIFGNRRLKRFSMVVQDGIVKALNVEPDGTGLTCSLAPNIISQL

SW-620 [8] = assay: Induction of mitochondrial membrane potential depolarization in human SW620 cells assessed as increase in JC-1-stained green cells at 0.5 to 2 uM incubated for 48 hrs by flow cytometry; assay type: functional, cell-based; settings: dose 0.5-2 µM
SW-620 [9] = assay: Induction of mitochondrial membrane potential depolarization in human SW620 cells assessed as change in morphological characteristics at 0.5 to 2 uM incubated for 48 hrs by bright-field microscopy; assay type: functional, cell-based; settings: dose 0.5-2 µM
SW-620 [10] = assay: Induction of mitochondrial membrane potential depolarization in human SW620 cells assessed as reduction in red fluorescence incubated for 48 hrs by JC1-staining based CLSM analysis; assay type: functional, cell-based; settings: dose 0.5-2 µM
SW-620 [11] = assay: Induction of apoptosis in human SW620 cells assessed as total apoptotic cells at 1 uM incubated for 48 hrs by Annexin V-FITC/PI staining based flow cytometry relative to control; assay type: functional
SW-620 [12] = assay: Induction of apoptosis in human SW620 cells assessed as total apoptotic cells at 2 uM incubated for 48 hrs by Annexin V-FITC/PI staining based flow cytometry relative to control; assay type: functional
SW-620 [13] = assay: Induction of cell cycle arrest at G1 phase in human SW620 cells at 0.5 uM incubated for 24 hrs by PI staining based flow cytometry (reference value: 32.4 %); assay type: functional
SW-620 [14] = assay: Induction of cell cycle arrest at S phase in human SW620 cells at 0.5 uM incubated for 24 hrs by PI staining based flow cytometry (reference value: 59.9 %); assay type: functional
SW-620 [15] = assay: Induction of cell cycle arrest at G1 phase in human SW620 cells at 1 uM incubated for 24 hrs by PI staining based flow cytometry (reference value: 32.4 %); assay type: functional
SW-620 [16] = assay: Induction of cell cycle arrest at S phase in human SW620 cells at 1 uM incubated for 24 hrs by PI staining based flow cytometry (reference value: 59.9 %); assay type: functional
SW-620 [17] = assay: Induction of cell cycle arrest at S phase in human SW620 cells at 2 uM incubated for 24 hrs by PI staining based flow cytometry (reference value: 59.9 %); assay type: functional
SW-620 [18] = assay: Induction of cell cycle arrest at G2 phase in human SW620 cells at 2 uM incubated for 24 hrs by PI staining based flow cytometry (reference value: 6.77 %); assay type: functional
SW-620 [19] = assay: Induction of cell cycle arrest at G2/M phase in human SW620 cells at 0.5 to 2 uM incubated for 48 hrs by PI staining based flow cytometry relative to control; assay type: functional; settings: dose 0.5-2 µM
SW-620 [20] = assay: Induction of apoptosis in human SW620 cells assessed as decrease in Bcl-2 level incubated for 48 hrs by Western blot analysis; assay type: functional, cell-based; settings: dose 0.25-2 µM
SW-620 [21] = assay: Induction of apoptosis in human SW620 cells assessed as decrease in Bcl-xl level incubated for 48 hrs by Western blot analysis; assay type: functional, cell-based; settings: dose 0.25-2 µM
SW-620 [22] = assay: Induction of DNA damage in human SW620 cells assessed as increase in gamma-H2AX level incubated for 48 hrs by Western blot analysis; assay type: functional, cell-based; settings: dose 0.25-2 µM
[23] = Half life in mouse at 2 mg/kg, iv measured for 24 hrs by LC-MS/MS analysis; assay type: ADME, organism-based; settings: in vivo
[24] = Volume of distribution in mouse at 2 mg/kg, iv measured for 24 hrs by LC-MS/MS analysis; assay type: ADME, organism-based; settings: in vivo
[25] = Acute toxicity in C57BL/[…] 6J mouse assessed as animal death at 20 mg/kg, ip measured for 2 weeks; assay type: organism-based; settings: in vivo, 336 h
[26] = Acute toxicity in C57BL/[…] 6J mouse assessed as pathological change in heart at 20 mg/kg, ip measured for 2 weeks by H and E staining based analysis; assay type: organism-based; settings: in vivo, 336 h
SW-620 [27] = assay: Antitumor activity against human SW620 cells xenografted in BALB/c nude mouse assessed as decrease in tumor weight at 2 mg/kg, ip qd for 16 days; assay type: functional, organism-based; settings: time 16.0 day
SW-620 [28] = assay: Antitumor activity against human SW620 cells xenografted in BALB/c nude mouse assessed as nuclear pyknosis in tumor cells at 2 mg/kg, ip qd for 16 days by H and E staining based analysis; assay type: functional, organism-based; settings: time 16.0 day
SW-620 [29] = assay: Antitumor activity against human SW620 cells xenografted in BALB/c nude mouse assessed as morphological change in vacuoles in tumor cells at 2 mg/kg, ip qd for 16 days by H and E staining based analysis; assay type: functional, organism-based; settings: time 16.0 day
SW-620 [30] = assay: cells; settings: Homo sapiens, SW-620, 48 h, read-out: Activity
Description: Induction of apoptosis in human SW620 cells assessed as viable cells at 0.5 uM incubated for 48 hrs by Annexin V-FITC/PI staining based flow cytometry (Rvb = 90.7 %)

SW-620 [31] = assay: cells; settings: Homo sapiens, SW-620, 48 h, read-out: Activity; remark: listed apart in the source
Description: Induction of apoptosis in human SW620 cells assessed as viable cells at 2 uM incubated for 48 hrs by Annexin V-FITC/PI staining based flow cytometry (Rvb = 90.7 %)

## COC(=O)C1(NC(=O)N[C@]2(C)CC[C@]3(C)CC[C@]4(C)C5=CC=C6C(=CC(=O)C(O)=C6C)[C@]5(C)CC[C@@]4(C)[C@@H]3C2)CCC1
Peroxiredoxin-1
  IC50: 350 nM
[1]
  IC50: ~1000 nM
[2]
  IC50: ~1000 nM
[3]
  Selectivity ratio: 2
[4]
  Selectivity ratio: 2
[5]
  Selectivity ratio: 2
[6]
  Selectivity ratio: 2
[7]
  IC50: > 50000 nM
SW-620 [8]
  Activity: Active
SW-620 [9]
  Activity: Active
SW-620 [10]
  Activity: Dose-Dependent Effect
SW-620 [11]
  Activity: 19%
SW-620 [12]
  Activity: 54.7%
SW-620 [13]
  Activity: 33.5%
SW-620 [14]
  Activity: 57.3%
SW-620 [15]
  Activity: 39.7%
SW-620 [16]
  Activity: 42.7%
SW-620 [17]
  Activity: 50.1%
SW-620 [18]
  Activity: 17.4%
SW-620 [19]
  Activity: 7.1%
SW-620 [20]
  Activity: Dose-Dependent Effect
SW-620 [21]
  Activity: Dose-Dependent Effect
SW-620 [22]
  Activity: Dose-Dependent Effect
[23]
  half-life: 8.46 h
[24]
  Vd: 60.7 L/kg
[25]
  Activity: Non-Toxic
[26]
  Activity: Non-Toxic
SW-620 [27]
  Activity: Active
SW-620 [28]
  Activity: Active
SW-620 [29]
  Activity: Active
SW-620 [30]
  viability at 0.5 µM: 88.5%
SW-620 [31]
  viability at 2 µM: 41.5%

Reference: ChEMBL document CHEMBL5543168, “Discovery of Urea Derivatives of Celastrol as Selective Peroxiredoxin 1 Inhibitors against Colorectal Cancer Cells” (J Med Chem, 2024)
